US9833497B2, “Human originated EGF domain proteins and use of the same” (CHENGDU SOURCEBIO LIMITED-LIABILITY COMPANY, priority 2013, dated 2017)

Columns and labels:
Assay type in all cases: cell-based
[1] = test system: E. coli DH5α; assay: Antibacterial activity: MIC and growth curve against E. coli DH5α in 96-well plate; conditions: minimal inhibitory concentration against E. coli DH5α; 96-well plate, 5×10^5 CFU/mL, 37° C., judged after 8 h
In short: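 Log-phase bacteria (OD600 ~0.5) resuspended in LB at 5×10^5 CFU/mL, exposed to recombinant protein at 50, 25, 12.5 μg/mL final in triplicate, 37 °C shaking at 175 rpm. OD600 read every 30 min; MIC is lowest concentration showing no growth.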

[2] = test system: E. coli BL21; assay: MIC against Gram-negative bacteria: E. coli BL21; conditions: 5×10^5 CFU/mL
In short: (§1)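 MIC = lowest concentration of recombinant protein showing no growth. Test proteins: purified human-derived EGF domain proteins, two-fold dilution series, three wells per concentration; inoculum 5×10^5 CFU/mL in LB; incubation 37° C with shaking at 175 rpm.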

[3] = test system: Pseudomonas aeruginosa; assay: MIC against Gram-negative bacteria: Pseudomonas aeruginosa; conditions: 5×10^5 CFU/mL
In short: as §1

[4] = test system: Klebsiella pneumonia; assay: MIC against Gram-negative bacteria: Klebsiella pneumonia; conditions: 5×10^5 CFU/mL
In short: as §1

[5] = test system: Enterobacter cloacae; assay: MIC against Gram-negative bacteria: Enterobacter cloacae; conditions: 5×10^5 CFU/mL
In short: as §1

[6] = test system: Aeromonas hydrophila; assay: MIC against Gram-negative bacteria: Aeromonas hydrophila; conditions: 5×10^5 CFU/mL
In short: as §1

[7] = test system: Citrobacter diversus; assay: MIC against Gram-negative bacteria: Citrobacter diversus; conditions: 5×10^5 CFU/mL
In short: as §1

[8] = test system: Moraxella catarrhalis; assay: MIC against Gram-negative bacteria: Moraxella catarrhalis; conditions: 5×10^5 CFU/mL
In short: as §1

[9] = test system: Proteus mirabilis; assay: MIC against Gram-negative bacteria: Proteus mirabilis; conditions: 5×10^5 CFU/mL
In short: as §1

[10] = test system: Proteus vulgaris; assay: MIC against Gram-negative bacteria: Proteus vulgaris; conditions: 5×10^5 CFU/mL
In short: as §1

[11] = test system: Serratia marcescens; assay: MIC against Gram-negative bacteria: Serratia marcescens; conditions: 5×10^5 CFU/mL
In short: as §1

[12] = E. coli BL21, 10 h cultivation at 37° C.

For “PRT456 (DIDECADSEACGEARCKNLPGSYSCLCDEGFAYSSQEKACR; listed as Homo sapiens)”, the MIC [1] was 25 µg/mL, the “MIC against E. coli BL21” value ([2]; 96-well plate, 37° C., 10 h) was 12.5 µg/mL and the “MIC against P. aeruginosa” value ([3]; 96-well plate, 37° C., 10 h) was 50 µg/mL. For the same substance, the “MIC against K. pneumonia” value ([4]; 96-well plate, 37° C., 10 h) was 12.5 µg/mL, the “MIC against E. cloacae” value ([5]; 96-well plate, 37° C., 10 h) was 12.5 µg/mL and the “MIC against A. hydrophila” value ([6]; 96-well plate, 37° C., 10 h) was 12.5 µg/mL. The “MIC against C. diversus” value ([7]; 96-well plate, 37° C., 10 h) was 50 µg/mL, the “MIC against M. catarrhalis” value ([8]; 96-well plate, 37° C., 10 h) was 12.5 µg/mL and the “MIC against P. mirabilis” value ([9]; 96-well plate, 37° C., 10 h) was 50 µg/mL. The “MIC against P. vulgaris” value ([10]; 96-well plate, 37° C., 10 h) was 12.5 µg/mL and the “MIC against S. marcescens” value ([11]; 96-well plate, 37° C., 10 h) was 25 µg/mL.
In the case of “PRT1235 (IGPQCEEMCNGQGSCINGTKCICDPGYSGPTCK; listed as Homo sapiens)”, the MIC [1] is reported as 12.5 µg/mL, the “MIC against E. coli BL21” value ([2]; E. coli BL21, 96-well plate, 37° C., 10 h) is reported as 12.5 µg/mL and the “MIC against P. aeruginosa” value ([3]; Pseudomonas aeruginosa, 96-well plate, 37° C., 10 h) is reported as 25 µg/mL. For the same substance, the “MIC against K. pneumonia” value ([4]; Klebsiella pneumonia, 96-well plate, 37° C., 10 h) was 12.5 µg/mL, the “MIC against E. cloacae” value ([5]; Enterobacter cloacae, 96-well plate, 37° C., 10 h) was 25 µg/mL and the “MIC against A. hydrophila” value ([6]; Aeromonas hydrophila, 96-well plate, 37° C., 10 h) was 12.5 µg/mL. For the same substance, the “MIC against C. diversus” value ([7]; Citrobacter diversus, 96-well plate, 37° C., 10 h) was 12.5 µg/mL, the “MIC against M. catarrhalis” value ([8]; Moraxella catarrhalis, 96-well plate, 37° C., 10 h) was 12.5 µg/mL and the “MIC against P. mirabilis” value ([9]; Proteus mirabilis, 96-well plate, 37° C., 10 h) was 12.5 µg/mL. For the same substance, the “MIC against P. vulgaris” value ([10]; Proteus vulgaris, 96-well plate, 37° C., 10 h) was 50 µg/mL and the “MIC against S. marcescens” value ([11]; Serratia marcescens, 96-well plate, 37° C., 10 h) was 12.5 µg/mL.
In the case of “PRT457 (DVDECLQGRCEQVCVNSPGSYTCHCDGRGGLKLSQDMDTCE; listed as Homo sapiens)”, the MIC [1] is reported as 50 µg/mL, the “MIC against E. coli BL21” value ([2]; 96-well plate, 37° C., 10 h) is reported as 25 µg/mL and the “MIC against P. aeruginosa” value ([3]; 96-well plate, 37° C., 10 h) is reported as 12.5 µg/mL. For the same substance, the “MIC against K. pneumonia” value ([4]; 96-well plate, 37° C., 10 h) was 50 µg/mL, the “MIC against E. cloacae” value ([5]; 96-well plate, 37° C., 10 h) was 25 µg/mL and the “MIC against A. hydrophila” value ([6]; 96-well plate, 37° C., 10 h) was 12.5 µg/mL. The “MIC against C. diversus” value ([7]; 96-well plate, 37° C., 10 h) was 25 µg/mL, the “MIC against M. catarrhalis” value ([8]; 96-well plate, 37° C., 10 h) was 50 µg/mL and the “MIC against P. mirabilis” value ([9]; 96-well plate, 37° C., 10 h) was 12.5 µg/mL. For the same substance, the “MIC against P. vulgaris” value ([10]; 96-well plate, 37° C., 10 h) was 50 µg/mL and the “MIC against S. marcescens” value ([11]; 96-well plate, 37° C., 10 h) was 12.5 µg/mL.
For “PRT665 (GIDRCAAGATNVCGPGTCVNLPDGYRCVCSPGYQLHPSQAYCT; listed as Homo sapiens)”, the MIC [1] was 25 µg/mL, the “MIC E. coli BL21” value ([2]; 96-well plate, 37° C., 10 h) was 50 µg/mL and the “MIC P. aeruginosa” value ([3]; 96-well plate, 37° C., 10 h) was 25 µg/mL. The “MIC K. pneumonia” value ([4]; 96-well plate, 37° C., 10 h) was 12.5 µg/mL, the “MIC E. cloacae” value ([5]; 96-well plate, 37° C., 10 h) was 25 µg/mL and the “MIC A. hydrophila” value ([6]; 96-well plate, 37° C., 10 h) was 50 µg/mL. The “MIC C. diversus” value ([7]; 96-well plate, 37° C., 10 h) was 25 µg/mL, the “MIC M. catarrhalis” value ([8]; 96-well plate, 37° C., 10 h) was 12.5 µg/mL and the “MIC P. mirabilis” value ([9]; 96-well plate, 37° C., 10 h) was 25 µg/mL. The “MIC P. vulgaris” value ([10]; 96-well plate, 37° C., 10 h) was 50 µg/mL and the “MIC S. marcescens” value ([11]; 96-well plate, 37° C., 10 h) was 25 µg/mL.
“PRT260 (CRAGNGGCHGLATCRAVGGGQRVCTCPPGFGGDGFSC; listed as Homo sapiens)” was tested, and the MIC [1] was 12.5 µg/mL, the “MIC (μg/mL) E. coli BL21” value [2, 12] was 25 µg/mL and the “MIC (μg/mL) P. aeruginosa” value ([3]; P. aeruginosa, 10 h cultivation at 37° C.) was 50 µg/mL. For the same substance, the “MIC (μg/mL) K. pneumonia” value ([4]; K. pneumonia, 10 h cultivation at 37° C.) was 25 µg/mL, the “MIC (μg/mL) E. cloacae” value ([5]; E. cloacae, 10 h cultivation at 37° C.) was 12.5 µg/mL and the “MIC (μg/mL) A. hydrophila” value ([6]; A. hydrophila, 10 h cultivation at 37° C.) was 25 µg/mL. For the same substance, the “MIC (μg/mL) C. diversus” value ([7]; C. diversus, 10 h cultivation at 37° C.) was 50 µg/mL, the “MIC (μg/mL) M. catarrhalis” value ([8]; M. catarrhalis, 10 h cultivation at 37° C.) was 25 µg/mL and the “MIC (μg/mL) P. mirabilis” value ([9]; P. mirabilis, 10 h cultivation at 37° C.) was 12.5 µg/mL. The “MIC (μg/mL) P. vulgaris” value ([10]; P. vulgaris, 10 h cultivation at 37° C.) was 12.5 µg/mL and the “MIC (μg/mL) S. marcescens” value ([11]; S. marcescens, 10 h cultivation at 37° C.) was 12.5 µg/mL.
In the case of “PRT1448 (ACREGRFGQSCQEQCPGISGCRGLTFCLPDPYGCSCGSGWRGSQCQ; listed as Homo sapiens)”, the MIC [1] is reported as 25 µg/mL, the “MIC against E. coli BL21” value [2, 12] is reported as 50 µg/mL and the “MIC against P. aeruginosa” value ([3]; Pseudomonas aeruginosa, 10 h cultivation at 37° C.) is reported as 12.5 µg/mL. The “MIC against K. pneumonia” value ([4]; Klebsiella pneumonia, 10 h cultivation at 37° C.) was 25 µg/mL, the “MIC against E. cloacae” value ([5]; Enterobacter cloacae, 10 h cultivation at 37° C.) was 50 µg/mL and the “MIC against A. hydrophila” value ([6]; Aeromonas hydrophila, 10 h cultivation at 37° C.) was 12.5 µg/mL. For the same substance, the “MIC against C. diversus” value ([7]; Citrobacter diversus, 10 h cultivation at 37° C.) was 25 µg/mL, the “MIC against M. catarrhalis” value ([8]; Moraxella catarrhalis, 10 h cultivation at 37° C.) was 50 µg/mL and the “MIC against P. mirabilis” value ([9]; Proteus mirabilis, 10 h cultivation at 37° C.) was 25 µg/mL. For the same substance, the “MIC against P. vulgaris” value ([10]; Proteus vulgaris, 10 h cultivation at 37° C.) was 12.5 µg/mL and the “MIC against S. marcescens” value ([11]; Serratia marcescens, 10 h cultivation at 37° C.) was 25 µg/mL.
For “PRT716 (TEYTCEDNVNPCGDDAYCNQIKTSVFCRCKPGFQRNMKNRQCE; listed as Homo sapiens)”, the MIC [1] was 25 µg/mL, the “MIC E. coli BL21” value ([2]; 96-well plate, 37° C., 10 h) was 50 µg/mL and the “MIC P. aeruginosa” value ([3]; 96-well plate, 37° C., 10 h) was 25 µg/mL. For the same substance, the “MIC K. pneumonia” value ([4]; 96-well plate, 37° C., 10 h) was 12.5 µg/mL, the “MIC E. cloacae” value ([5]; 96-well plate, 37° C., 10 h) was 25 µg/mL and the “MIC A. hydrophila” value ([6]; 96-well plate, 37° C., 10 h) was 50 µg/mL. The “MIC C. diversus” value ([7]; 96-well plate, 37° C., 10 h) was 25 µg/mL, the “MIC M. catarrhalis” value ([8]; 96-well plate, 37° C., 10 h) was 12.5 µg/mL and the “MIC P. mirabilis” value ([9]; 96-well plate, 37° C., 10 h) was 25 µg/mL. The “MIC P. vulgaris” value ([10]; 96-well plate, 37° C., 10 h) was 50 µg/mL and the “MIC S. marcescens” value ([11]; 96-well plate, 37° C., 10 h) was 12.5 µg/mL.
